What was measured:
sGC α1/β1 heterodimer = target: T1, sGC α1/β1 heterodimer (Homo sapiens, UniProt Q02108+Q02153); assay: Cell-based sGC functional assay (CASA assay): cGMP generation in CHO-K1/sGC cells, HTRF detection; conditions: for Emax: CHO-K1, percent activation relative to standard Compound A in CHO-K1/sGC cells, read-out: % Act.; for EC50: inflection point (IP) of cGMP generation in CHO-K1/sGC cells, 4P fit, activity expressed as percentage of Compound A
T1 construct: expressed in transfected cells; host or cells: CHO-K1 (clone #7, CHO-K1/sGC)
T1 sequence (Q02108 1-690): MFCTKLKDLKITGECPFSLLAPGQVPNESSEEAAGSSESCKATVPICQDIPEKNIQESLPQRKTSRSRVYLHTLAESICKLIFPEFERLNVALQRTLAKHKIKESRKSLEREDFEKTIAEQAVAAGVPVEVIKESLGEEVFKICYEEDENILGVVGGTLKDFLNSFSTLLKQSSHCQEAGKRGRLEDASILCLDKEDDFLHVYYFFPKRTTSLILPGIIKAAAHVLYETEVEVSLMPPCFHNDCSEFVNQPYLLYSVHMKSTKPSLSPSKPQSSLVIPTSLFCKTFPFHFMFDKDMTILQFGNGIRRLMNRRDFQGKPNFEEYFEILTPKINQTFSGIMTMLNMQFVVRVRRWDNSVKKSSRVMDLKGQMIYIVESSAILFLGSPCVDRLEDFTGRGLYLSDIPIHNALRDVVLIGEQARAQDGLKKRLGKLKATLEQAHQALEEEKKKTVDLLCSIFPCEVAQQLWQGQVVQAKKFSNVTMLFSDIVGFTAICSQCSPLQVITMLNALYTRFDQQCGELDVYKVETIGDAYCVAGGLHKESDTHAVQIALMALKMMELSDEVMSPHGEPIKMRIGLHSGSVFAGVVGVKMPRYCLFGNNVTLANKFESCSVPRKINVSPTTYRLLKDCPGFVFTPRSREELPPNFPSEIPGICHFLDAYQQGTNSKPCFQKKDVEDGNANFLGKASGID
T1 sequence (Q02153 1-619): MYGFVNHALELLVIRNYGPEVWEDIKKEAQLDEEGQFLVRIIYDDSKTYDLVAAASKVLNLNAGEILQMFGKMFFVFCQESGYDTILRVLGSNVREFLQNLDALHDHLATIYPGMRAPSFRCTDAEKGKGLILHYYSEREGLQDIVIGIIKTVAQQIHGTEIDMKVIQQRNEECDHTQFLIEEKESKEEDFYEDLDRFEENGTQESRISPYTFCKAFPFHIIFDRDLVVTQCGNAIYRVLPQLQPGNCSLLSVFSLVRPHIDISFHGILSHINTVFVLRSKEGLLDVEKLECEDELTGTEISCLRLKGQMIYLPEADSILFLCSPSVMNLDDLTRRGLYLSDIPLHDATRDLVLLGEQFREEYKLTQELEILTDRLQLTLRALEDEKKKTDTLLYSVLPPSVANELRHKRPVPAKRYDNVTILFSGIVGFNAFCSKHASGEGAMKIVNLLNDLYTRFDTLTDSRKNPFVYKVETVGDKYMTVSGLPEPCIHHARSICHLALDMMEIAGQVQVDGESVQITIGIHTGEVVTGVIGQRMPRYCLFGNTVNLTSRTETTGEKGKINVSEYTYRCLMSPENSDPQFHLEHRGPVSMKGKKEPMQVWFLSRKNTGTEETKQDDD
Outline: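 cGMP was quantified by HTRF after 1 hr, 37° C exposure of thawed CHO-K1 cells expressing sGC α1/β1 to compound, with or without 1 μM DETA-NO. IBMX (0.5 mM) blocked cGMP breakdown, and DMSO was 2.5% final. Percent of standard Compound A's maximal cGMP was fitted (4P) for inflection point.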

[1] = test system: Spontaneously hypertensive rats (SHR); assay: Acute efficacy in spontaneously hypertensive rats (SHR): telemetry blood pressure lowering after a single oral dose; assay type: in vivo, rat
From the text: Acute Efficacy in Spontaneously Hypertensive Rats (SHR)
Spontaneously hypertensive rats (SHR, male, Charles River) were implanted with DSI TA11PA-C40 telemetry device (Data Sciences, Inc., St. Paul, Minn.) under isoflurane or ketamine/metomidine anesthesia. The telemetry unit catheter was inserted into the descending aorta via the femoral artery and the telemetry device was implanted subcutaneously in the left flank area. Animals were allowed to recover from surgery for 14 days before the start of any studies. Blood pressure, heart rate, and activity signals from conscious, freely moving rats were recorded continuously for 30 seconds every 10 minutes. On the day prior to administration of compound, a single oral dose of vehicle (10% transcutol/20% Cremophor/70% water) was administered to all animals to establish baseline control data. The blood pressure lowering efficacy of compound (PO) or vehicle was evaluated following a single oral gavage. Data were collected as hourly averages, and changes in blood pressure were calculated by subtracting control baseline data on an hourly basis. Animals were maintained on normal diet with a 12 hour light-dark cycle.
Maximum peak decreases of systolic blood pressure (SBP) in SHR at a particular P.O. dose (mpk milligrams per kilogram) for the following representative compounds are provided. Category A=SBP in SHRs<20 mmHg; Category B=SBP in SHRs 20-40 mmHg; Category C=SBP in SHRs>40 mmHg

## CC1(c2ccc(Cl)cc2)C(=O)Nc2nc(-c3cn4ccnc4cn3)nc(NCCC(F)(F)C(F)(F)F)c21 (stereo not shown) [Example 286A, 5-(4-chlorophenyl)-2-(imidazo[1,2-a]pyrazin-6-yl)-5-methyl-4-((3,3,4,4,4-pentafluorobutyl)amino)-5H-pyrrolo[2,3-d]pyrimidin-6(7H)-one]
sGC α1/β1 heterodimer
  Emax: 83%
  EC50: 0.124 µM
[1]; P.O. 3.0 mpk
  Maximum peak decrease of systolic blood pressure (SBP) in SHR, Cat.: A (Category A=SBP in SHRs<20 mmHg)

## CCCCc1nc(-c2nc(N)c3c(n2)NC(=O)C3(c2cccc(C(F)(F)F)n2)C2CC2)cn2ccnc12 (single isomer, unassigned) [Example 355A, 4-amino-2-(8-butylimidazo[1,2-a]pyrazin-6-yl)-5-cyclopropyl-5-(6-(trifluoromethyl)pyridin-2-yl)-5H-pyrrolo[2,3-d]pyrimidin-6(7H)-one]
sGC α1/β1 heterodimer
  Emax: 126%
  EC50: 0.202 µM
[1]; P.O. 1.0 mpk
  Maximum peak decrease of systolic blood pressure (SBP) in SHR, Cat.: A (Category A=SBP in SHRs<20 mmHg)

## CC1(c2ccc(F)cc2)C(=O)Nc2nc(-c3cn4c(Br)cnc4c(CCC(F)(F)F)n3)nc(N)c21 (stereo not shown) [Example 264A, 4-amino-2-(3-bromo-8-(3,3,3-trifluoropropyl)imidazo[1,2-a]pyrazin-6-yl)-5-(4-fluorophenyl)-5-methyl-5H-pyrrolo[2,3-d]pyrimidin-6(7H)-one]
sGC α1/β1 heterodimer
  Emax: 123%
  EC50: 0.239 µM
[1]; P.O. 1.0 mpk
  Maximum peak decrease of systolic blood pressure (SBP) in SHR, Cat.: A (Category A=SBP in SHRs<20 mmHg)

## CC1(c2ccc(C3CC3)nc2)C(=O)Nc2nc(-c3cn4ccnc4c(CCC(F)(F)C(F)(F)F)n3)nc(N)c21 (stereo not shown) [Example 240B, 4-amino-5-(6-cyclopropylpyridin-3-yl)-5-methyl-2-(8-(3,3,4,4,4-pentafluorobutyl)imidazo [1,2-a]pyrazin-6-yl)-5H-pyrrolo[2,3-d]pyrimidin-6(7H)-one]
sGC α1/β1 heterodimer
  Emax: 105%
  EC50: 0.053 µM
[1]; P.O. 1.0 mpk
  Maximum peak decrease of systolic blood pressure (SBP) in SHR, Cat.: A (Category A=SBP in SHRs<20 mmHg)

## CCCCc1nc(-c2nc(N)c3c(n2)NC(=O)C3(C)c2ccc(Cl)cc2)cn2ccnc12 (stereo not shown) [Example 10A, 4-amino-2-(8-butylimidazo[1,2-a]pyrazin-6-yl)-5-(4-chlorophenyl)-5-methyl-5H-pyrrolo[2,3-d]pyrimidin-6(7H)-one]
sGC α1/β1 heterodimer
  Emax: 120%
  EC50: 0.056 µM
[1]; P.O. 0.3 mpk
  Maximum peak decrease of systolic blood pressure (SBP) in SHR, Cat.: C (Category C=SBP in SHRs>40 mmHg)

## CCCCc1nc(-c2nc(N)c3c(n2)NC(=O)C3(c2ccc(Cl)cc2)C2CCC2)cn2ccnc12 (single isomer, unassigned) [Example 358B, 4-amino-2-(8-butylimidazo[1,2-a]pyrazin-6-yl)-5-(4-chlorophenyl)-5-cyclobutyl-5H-pyrrolo[2,3-d]pyrimidin-6(7H)-one]
sGC α1/β1 heterodimer
  Emax: 120%
  EC50: 0.02 µM

## Nc1nc(-c2cn3ccnc3c(Cc3ccccc3F)n2)nc2c1C(c1ccc(Cl)cn1)(C1CC1)C(=O)N2 (single isomer, unassigned) [Example 110B, 4-amino-5-(5-chloropyridin-2-yl)-5-cyclopropyl-2-(8-(2-fluorobenzyl)imidazo[1,2-a]pyrazin-6-yl)-5H-pyrrolo[2,3-d]pyrimidin-6(7H)-one]
sGC α1/β1 heterodimer
  Emax: 151%
  EC50: 0.011 µM

## CC1(C)C(=O)Nc2nc(-c3cn4ccnc4c(Cc4ccc(F)c(F)c4)n3)nc(N)c21 [Example 73, 4-amino-2-(8-(3,4-difluorobenzyl)imidazo[1,2-a]pyrazin-6-yl)-5,5-dimethyl-5H-pyrrolo[2,3-d]pyrimidin-6(7H)-one]
sGC α1/β1 heterodimer
  Emax: 111%
  EC50: 0.044 µM

## CC(C)Cc1nc(-c2nc(N)c3c(n2)NC(=O)C3(C)c2ccc(OC(F)F)cn2)cn2ccnc12 (stereo not shown) [Example 130A, 4-amino-5-(5-(difluoromethoxy)pyridin-2-yl)-2-(8-isobutylimidazo[1,2-a]pyrazin-6-yl)-5-methyl-5H-pyrrolo[2,3-d]pyrimidin-6(7H)-one]
sGC α1/β1 heterodimer
  Emax: 119%
  EC50: 0.324 µM

## CC1(c2ccc(Cl)cc2)C(=O)Nc2nc(-c3cn4cc(C(F)(F)F)nc4c(Cc4cccc(F)c4)n3)nc(N)c21 (stereo not shown) [Example 150A, 4-amino-5-(4-chlorophenyl)-2-(8-(3-fluorobenzyl)-2-(trifluoromethyl)imidazo[1,2-a]pyrazin-6-yl)-5-methyl-5H-pyrrolo[2,3-d]pyrimidin-6(7H)-one]
sGC α1/β1 heterodimer
  Emax: 122%
  EC50: 0.029 µM

## Cn1cc(C2(C)C(=O)Nc3nc(-c4cn5ccnc5c(Cc5ccc(F)cc5)n4)nc(N)c32)nn1 (stereo not shown) [Example 65A, 4-amino-2-(8-(4-fluorobenzyl)imidazo[1,2-a]pyrazin-6-yl)-5-methyl-5-(1-methyl-1H-1,2,3-triazol-4-yl)-5H-pyrrolo[2,3-d]pyrimidin-6(7H)-one]
sGC α1/β1 heterodimer
  Emax: 108%
  EC50: 0.256 µM

## CCC1(C)C(=O)Nc2nc(-c3cn4ccnc4c(Cc4ccccc4)n3)nc(N)c21 (single isomer, unassigned) [Example 84B, 4-amino-2-(8-benzylimidazo[1,2-a]pyrazin-6-yl)-5-ethyl-5-methyl-5H-pyrrolo[2,3-d]pyrimidin-6(7H)-one]
sGC α1/β1 heterodimer
  Emax: 100%
  EC50: 0.18 µM

## CC1(C)CN(c2nc(-c3cn4ccnc4c(CCC(F)(F)C(F)(F)F)n3)nc3c2C(C)(c2ccc(F)cc2)C(=O)N3)CCO1 (stereo not shown) [Example 304A, 4-(2,2-dimethylmorpholino)-5-(4-fluorophenyl)-5-mehtyl-2-(8-(3,3,4,4,4-pentafluorobutyl)imidazo[1,2-a]pyrazin-6-yl)-5H-pyrrolo[2,3-d]pyrimidin-6(7H)-one]
sGC α1/β1 heterodimer
  Emax: 89%
  EC50: 0.415 µM

## CN(C)C(=O)c1cccc(C2(C)C(=O)Nc3nc(-c4cn5ccnc5c(CCC(F)(F)C(F)(F)F)n4)nc(N)c32)c1 (stereo not shown) [Example 271B, 3-(4-Amino-5-methyl-6-oxo-2-(8-(3,3,4,4,4-pentafluorobutyl)imidazo[1,2-a]pyrazin-6-yl)-6,7-dihydro-5H-pyrrolo[2,3-d]pyrimidin-5-yl)-N,N-dimethylbenzamide]
sGC α1/β1 heterodimer
  Emax: 95%
  EC50: 0.622 µM

## CCC(CC)Cc1nc(-c2nc(N)c3c(n2)NC(=O)C3(C)c2ccc(F)cn2)cn2ccnc12 (stereo not shown) [Example 18B, 4-amino-2-(8-(2-ethylbutyl)imidazo[1,2-a]pyrazin-6-yl)-5-(5-fluoropyridin-2-yl)-5-methyl-5H-pyrrolo[2,3-d]pyrimidin-6(7H)-one]
sGC α1/β1 heterodimer
  Emax: 106%
  EC50: 0.145 µM

## Cc1nnc(C2(C)C(=O)Nc3nc(-c4cn5ccnc5c(CCC(F)(F)C(F)(F)F)n4)nc(N)c32)s1 (stereo not shown) [Example 58A, 4-amino-5-methyl-5-(5-methyl-1,3,4-thiadiazol-2-yl)-2-(8-(3,3,4,4,4-pentafluorobutyl)imidazo[1,2-a]pyrazin-6-yl)-5H-pyrrolo[2,3-d]pyrimidin-6(7H)-one]
sGC α1/β1 heterodimer
  Emax: 93%
  EC50: 0.636 µM

From patent US9796733B2, “Imidazo-pyrazine derivatives useful as soluble guanylate cyclase activators” (Merck Sharp & Dohme Corp., priority 2014, dated 2017)
